The target in the experiment is N-terminally GST-tagged HCK (75-526) (Homo sapiens (Human), UniProt P08631). Kind of experiment: HCK Kinase Assay (ProFluor Src-Family Kinase Assay). Type of experiment: biochemical. The conditions noted are these: HCK inhibitory activity, 50 μM ATP; read-out: HCK Activity. Here is the method: The procedure of ProFluor Src-Family Kinase Assay (Promega, Cat. No. V1271) was then followed. To the reaction was added 5 μL Protease solution and the mixture was incubated for 60 minutes at room temperature (22-25° C.), followed by 5 μL Stabilizer solution. The fluorescence signal was read on an Envision multilabel plate reader (Perkin Elmer). The R110 was then read at an excitation wavelength of 485 nm and an emission wavelength of 530 nm. The AMC signal was read at an excitation wavelength of 355 nm and an emission wavelength of 460 nm.
Sequence of N-terminally GST-tagged HCK (75-526) (P08631 75-526): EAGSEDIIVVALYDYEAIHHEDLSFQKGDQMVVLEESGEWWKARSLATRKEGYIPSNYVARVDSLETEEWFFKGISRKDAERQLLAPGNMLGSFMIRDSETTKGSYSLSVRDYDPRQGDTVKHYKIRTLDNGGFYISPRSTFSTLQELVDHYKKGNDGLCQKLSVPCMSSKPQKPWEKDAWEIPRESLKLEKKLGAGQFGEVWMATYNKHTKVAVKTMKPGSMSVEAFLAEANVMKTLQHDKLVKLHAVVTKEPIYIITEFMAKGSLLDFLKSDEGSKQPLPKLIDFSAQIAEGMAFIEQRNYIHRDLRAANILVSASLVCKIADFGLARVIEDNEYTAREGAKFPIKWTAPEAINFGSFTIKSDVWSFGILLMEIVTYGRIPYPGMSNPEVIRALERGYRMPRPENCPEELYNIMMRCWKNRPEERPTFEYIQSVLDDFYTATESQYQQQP

SMILES strings stand for the structures.

We go through twelve molecules from patent US11963960B2 (Flash Therapeutics, LLC, priority 2020, dated 2024).

`Nc1ncnc2c1c(-c1ccc(Oc3ccccc3)cc1)cn2[C@H]1CC[C@@H](N2CCN3CCC[C@@H]3C2)CC1` [Example 49, 7-((cis)-4-((R)-hexahydropyrrolo[1,2-a]pyrazin-2(1H)-yl)cyclohexyl)-5-(4-phenoxyphenyl)-7H-pyrrolo[2,3-d]pyrimidin-4-amine]: the IC50 is less than 50 nM. `CC1(N)CCN([C@H]2CC[C@H](n3cc(-c4ccc(Oc5ccccc5)cc4)c4c(N)ncnc43)CC2)CC1` [Example 50, 7-((trans)-4-(4-amino-4-methylpiperidin-1-yl)cyclohexyl)-5-(4-phenoxyphenyl)-7H-pyrrolo[2,3-d]pyrimidin-4-amine]: the IC50 was 50 to 250 nM. `CC1(N)CCN([C@H]2CC[C@@H](n3cc(-c4ccc(Oc5ccccc5)cc4)c4c(N)ncnc43)CC2)CC1` [Example 51, 7-((cis)-4-(4-amino-4-methylpiperidin-1-yl)cyclohexyl)-5-(4-phenoxyphenyl)-7H pyrrolo[2,3-d]pyrimidin-4-amine]: the IC50 was less than 50 nM. With `Nc1ncnc2c1c(-c1ccc(Oc3ccccc3)cc1)cn2[C@H]1CC[C@H](N2CCC(N)CC2)CC1` [Example 52, 7-((trans)-4-(4-aminopiperidin-1-yl)cyclohexyl)-5-(4-phenoxyphenyl)-7H-pyrrolo[2,3-d]pyrimidin-4-amine], the IC50 was less than 50 nM. `Nc1ncnc2c1c(-c1ccc(Oc3ccccc3)cc1)cn2[C@H]1CC[C@@H](N2CCC(N)CC2)CC1` [Example 53, 7-((cis)-4-(4-aminopiperidin-1-yl)cyclohexyl)-5-(4-phenoxyphenyl)-7H-pyrrolo[2,3-d]pyrimidin-4-amine]: the IC50 lay in the range of 50 to 250 nM.

On to `Nc1ncnc2c1c(-c1ccc(Oc3ccccc3)cc1)cn2[C@H]1CC[C@H](N2CCCC(N)C2)CC1` (stereo partly drawn) [Example 54, 7-((trans)-4-(3-aminopiperidin-1-yl)cyclohexyl)-5-(4-phenoxyphenyl)-7H-pyrrolo[2,3-d]pyrimidin-4-amine], for which the IC50 is less than 50 nM.

On to `Nc1ncnc2c1c(-c1ccc(Oc3ccccc3)cc1)cn2[C@H]1CC[C@@H](N2CCCC(N)C2)CC1` (stereo partly drawn) [Example 55, 7-((cis)-4-(3-aminopiperidin-1-yl)cyclohexyl)-5-(4-phenoxyphenyl)-7H-pyrrolo[2,3-d]pyrimidin-4-amine], for which the IC50 is less than 50 nM.

Take `Nc1ncnc2c1c(-c1ccc(Oc3ccccc3)cc1)cn2[C@H]1CC[C@H](N2CCC[C@H](N)C2)CC1` [Example 56, 7-((trans)-4-((S)-3-aminopiperidin-1-yl)cyclohexyl)-5-(4-phenoxyphenyl)-7H-pyrrolo[2,3-d]pyrimidin-4-amine]: the IC50 is less than 50 nM.

As for `Nc1ncnc2c1c(-c1ccc(Oc3ccccc3)cc1)cn2[C@H]1CC[C@@H](N2CCC[C@H](N)C2)CC1` [Example 57, 7-((cis)-4-((S)-3-aminopiperidin-1-yl)cyclohexyl)-5-(4-phenoxyphenyl)-7H-pyrrolo[2,3-d]pyrimidin-4-amine], the IC50 is less than 50 nM. For `Nc1ncnc2c1c(-c1ccc(Oc3ccccc3)cc1)cn2[C@H]1CC[C@@H](N2CCC[C@@H](N)C2)CC1` [Example 58, 7-((cis)-4-((R)-3-aminopiperidin-1-yl)cyclohexyl)-5-(4-phenoxyphenyl)-7H-pyrrolo[2,3-d]pyrimidin-4-amine], the IC50 was 50 to 250 nM. Consider `Nc1ncnc2c1c(-c1ccc(Oc3ccccc3)cc1)cn2[C@H]1CC[C@H](N2CCC[C@@H](N)C2)CC1` [Example 59, 7-((trans)-4-((R)-3-aminopiperidin-1-yl)cyclohexyl)-5-(4-phenoxyphenyl)-7H-pyrrolo[2,3-d]pyrimidin-4-amine], for which the IC50 is less than 50 nM. For the molecule `CN[C@@H]1CCCN([C@H]2CC[C@H](n3cc(-c4ccc(Oc5ccccc5)cc4)c4c(N)ncnc43)CC2)C1` [Example 60, 7-((trans)-4-((R)-3-(methylamino)piperidin-1-yl)cyclohexyl)-5-(4-phenoxyphenyl)-7H-pyrrolo[2,3-d]pyrimidin-4-amine], the IC50 was less than 50 nM.
